Drawing on ChEMBL document CHEMBL1144996 (J Med Chem, 2003), this text covers Ki for 21 compounds.

Among the targets are Carbonic anhydrase 2 (Homo sapiens, UniProt P00918); Carbonic anhydrase 9 (Homo sapiens, UniProt Q16790); Carbonic anhydrase 1 (Homo sapiens, UniProt P00915).

SMILES strings stand for the structures.

Sequence of Carbonic anhydrase 1 (P00915 whole entry): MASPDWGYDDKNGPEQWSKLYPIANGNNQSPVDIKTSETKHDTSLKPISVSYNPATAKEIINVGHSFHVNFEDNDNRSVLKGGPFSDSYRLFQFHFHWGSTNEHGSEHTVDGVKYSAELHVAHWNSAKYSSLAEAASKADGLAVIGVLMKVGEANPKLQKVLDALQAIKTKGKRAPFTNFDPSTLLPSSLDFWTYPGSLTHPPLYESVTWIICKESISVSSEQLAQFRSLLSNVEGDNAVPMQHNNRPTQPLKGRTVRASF

By Ki is commonly meant a dissociation constant, usually derived from enzyme kinetics or from competition with a known ligand. As to `C[C@]12CC[C@@H]3c4ccc(O)cc4CC[C@H]3[C@@H]1CC[C@@H]2OS(N)(=O)=O`, the Ki at Carbonic anhydrase 2 came out at 13 nM; at Carbonic anhydrase 9, 32 nM; at Carbonic anhydrase 1, 15 nM.
Take `C[C@]12CC[C@@H]3c4ccc(OS(N)(=O)=O)cc4CC[C@H]3[C@@H]1CC[C@@H]2OS(N)(=O)=O`: the figures for the Ki at Carbonic anhydrase 2, at Carbonic anhydrase 9 and on Carbonic anhydrase 1 were 5 nM, 58 nM and 6 nM, respectively.
For the compound `NS(=O)(=O)Oc1ccc([N+](=O)[O-])cc1`, the Ki was 1.5 nM at Carbonic anhydrase 2, 36 nM at Carbonic anhydrase 9 and 40 nM at Carbonic anhydrase 1.
On to `NS(=O)(=O)Oc1ccc(Cl)cc1`, for which the inhibition constant (Ki) at Carbonic anhydrase 9 is 18 nM; on Carbonic anhydrase 1, 4.6 nM.
`N#Cc1ccc(OS(N)(=O)=O)cc1`: the inhibitory constant (Ki) at Carbonic anhydrase 2 amounted to 149 nM; at Carbonic anhydrase 9, 41 nM; at Carbonic anhydrase 1, 480 nM.
Consider `NS(=O)(=O)Oc1ccc(I)cc1`, for which the Ki at Carbonic anhydrase 2 was determined as 3.8 nM; at Carbonic anhydrase 9 it was 23 nM; at Carbonic anhydrase 1 it was 9.5 nM.
In the case of `Cc1ccc(OS(N)(=O)=O)cc1`, the values for the Ki on Carbonic anhydrase 2, on Carbonic anhydrase 9 and on Carbonic anhydrase 1 were 1.9 nM, 59 nM and 3.8 nM, respectively.
For the compound `NS(=O)(=O)Oc1ccc(Br)cc1`, the Ki at Carbonic anhydrase 9 worked out at 19 nM; on Carbonic anhydrase 1, 7.3 nM.
As to `CC1(C)OCC(C2OC3OC(C)(C)OC3[C@H]2OS(N)(=O)=O)O1` (some centres not stated), the results for the Ki on Carbonic anhydrase 2, at Carbonic anhydrase 9 and at Carbonic anhydrase 1 were 15 nM, 39 nM and 278 nM, respectively.
On the same counts, the results for `NS(=O)(=O)Oc1c(Cl)cc(Cl)cc1Cl` are 138 nM, 37 nM and 454 nM.
Turning to `NS(=O)(=O)Oc1ccc(-c2ccccc2)cc1`, the Ki on Carbonic anhydrase 2 came out at 95 nM; at Carbonic anhydrase 9 it was 50 nM; on Carbonic anhydrase 1, 113 nM.
On the same counts, the results for `NS(=O)(=O)OCCOc1ccc(-n2ccnc2)cc1` are 23 nM, 26 nM and 28 nM.
With `CC(=O)Nc1ccc(OS(N)(=O)=O)cc1`, the Ki is 18 nM at Carbonic anhydrase 2, 45 nM at Carbonic anhydrase 9 and 37 nM at Carbonic anhydrase 1.
For `NS(=O)(=O)Oc1ccc(Oc2ccccc2)cc1`, the values for the Ki on Carbonic anhydrase 2, at Carbonic anhydrase 9 and at Carbonic anhydrase 1 were 98 nM, 51 nM and 115 nM, respectively.
Turning to `CC(C)(C)c1ccc(OS(N)(=O)=O)cc1`, the results for the Ki on Carbonic anhydrase 2 and at Carbonic anhydrase 1 were 2.9 nM and 43 nM, respectively.
Regarding `C[C@]12CCC(OS(N)(=O)=O)CC1=CCC1C2CC[C@]2(C)C(=O)CCC12` (some centres not stated), the Ki on Carbonic anhydrase 2 was 27 nM; on Carbonic anhydrase 9, 44 nM; at Carbonic anhydrase 1, 31 nM.
On to `CC1(C)O[C@@H]2[C@H](O1)[C@H]1OC(C)(C)OC1O[C@@H]2COS(N)(=O)=O` (some centres not stated), for which the Ki is 29 nM on Carbonic anhydrase 2, 32 nM at Carbonic anhydrase 9 and 315 nM on Carbonic anhydrase 1.
In the same order, the values of `COc1ccc(OS(N)(=O)=O)cc1` are 1.6 nM, 34 nM and 33 nM.
On to `C[C@]12CC[C@@H]3c4ccc(OS(N)(=O)=O)cc4CC[C@H]3[C@@H]1CCC2=O` [EMATE], for which affinity on Carbonic anhydrase 1 was put at a Ki of 37 nM.
Regarding `NS(=O)(=O)Oc1ccccc1` [PHENYLSULFAMATE], the figures for the Ki at Carbonic anhydrase 9 and on Carbonic anhydrase 1 were 63 nM and 2.1 nM, respectively.
Take `NS(=O)(=O)Oc1c(Cl)c(Cl)c(Cl)c(Cl)c1Cl` [SULFAMIC ACID PENTACHLOROPHENYL ESTER]: the Ki is 125 nM on Carbonic anhydrase 2, 39 nM on Carbonic anhydrase 9 and 432 nM at Carbonic anhydrase 1.
